In publication PMC3901310 (Analytical chemistry, 2013):
Like-named read-outs stand apart in the source and are kept apart here. Blank lines part the entries; values can stand above or below the compound they belong to.

Columns and labels:
Format in all cases: binding
lysozyme = lysozyme (Gallus gallus, UniProt P00698); assay: reactive liquid sample DESI-MS of the native […] complex
Ribonuclease A (RNaseA) [1] = target: T1, Ribonuclease A (RNaseA) (Bos taurus, UniProt P61823); assay: as above
T1 sequence (P61823 27-150): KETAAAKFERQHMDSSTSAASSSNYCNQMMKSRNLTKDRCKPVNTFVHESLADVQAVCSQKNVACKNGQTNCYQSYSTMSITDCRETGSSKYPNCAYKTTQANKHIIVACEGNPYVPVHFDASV

Ribonuclease A (RNaseA) [2] = target: T1, Ribonuclease A (RNaseA); assay: reactive liquid sample DESI-MS of the native complex, ligand titration
Ribonuclease A (RNaseA) [3] = target: T1, Ribonuclease A (RNaseA); assay: reactive liquid sample DESI-MS of the native […] complex; remark: listed apart in the source

lysozyme, sequence (P00698 19-147): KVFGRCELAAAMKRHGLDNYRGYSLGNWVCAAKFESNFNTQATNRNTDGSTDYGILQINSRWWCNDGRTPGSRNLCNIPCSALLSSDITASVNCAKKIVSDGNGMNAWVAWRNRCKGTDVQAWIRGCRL

Kd (lysozyme): 169 µM
Structure (SMILES): CC(=O)N[C@H]1[C@H](O[C@H]2[C@H](O)[C@@H](NC(C)=O)C(O)O[C@@H]2CO)O[C@H](CO)[C@@H](O[C@@H]2O[C@H](CO)[C@@H](O)[C@H](O)[C@H]2NC(C)=O)[C@@H]1O (stereo partly shown) [NAG3, N,N’,N’’-triacetylchitotriose]

reactive liquid sample DESI-MS of the native 1:1 complex ([holo]/[apo] ratio at (Ribonuclease A (RNaseA) [1]): 0.37±0.04
Structure (SMILES): Nc1ccn([C@@H]2O[C@H](COP(=O)(O)OP(=O)(O)O)[C@@H](O)[C@H]2O)c(=O)n1 [CDP, cytidine 5′-diphosphate]

Kd (Ribonuclease A (RNaseA) [2]): 1.91 µM
Structure (SMILES): Nc1ccn([C@@H]2O[C@H](COP(=O)(O)OP(=O)(O)OP(=O)(O)O)[C@@H](O)[C@H]2O)c(=O)n1 [CTP, cytidine 5′-triphosphate]

reactive liquid sample DESI-MS of the native 1:1 complex ([holo]/[apo] ratio at (Ribonuclease A (RNaseA) [3]): 0.13±0.017
Structure (SMILES): Nc1ccn([C@@H]2O[C@H](CO)[C@@H](O)[C@H]2OP(=O)(O)O)c(=O)n1 [2′-CMP, cytidine 2′-monophosphate]
